# Results published in ChEMBL document CHEMBL5321213, “Nicolaioidesin C: An Antiausterity Agent Shows Promising Antitumor Activity in a Pancreatic Cancer Xenograft Mouse Model” (J Nat Prod, 2023).
# The source made the active and inactive calls. The rule behind the calls is not given here.
# What was measured:
# Assay type in all cases: functional
# MIA PaCa-2 [1] = test: Antitumor activity against human MIA PaCa-2 cells xenografted in athymic BALB/c-nu mouse assessed as fold change in hypoxanthine level in tumor at 2 mg/kg/day, ip administered five times per week for 4 weeks by LC-MS analysis
# MIA PaCa-2 [2] = test: Antitumor activity against human MIA PaCa-2 cells xenografted in athymic BALB/c-nu mouse assessed as fold change in cytidine level in tumor at 2 mg/kg/day, ip administered five times per week for 4 weeks by LC-MS analysis
# MIA PaCa-2 [3] = test: Antitumor activity against human MIA PaCa-2 cells xenografted in athymic BALB/c-nu mouse assessed as fold change in nicotinamide level in tumor at 2 mg/kg/day, ip administered five times per week for 4 weeks by LC-MS analysis
# MIA PaCa-2 [4] = test: Antitumor activity against human MIA PaCa-2 cells xenografted in athymic BALB/c-nu mouse assessed as fold change in Gly-Leu metabolite level in tumor at 10 mg/kg/day, ip administered five times per week for 4 weeks by LC-MS analysis
# PANC-1 = test: Preferential cytotoxicity against human PANC-1 cells in nutrient-deprived medium assessed as alteration in cell morphology by measuring rupture of cell membrane at 5 uM measured after 24 hrs by acridine orange and ethidium bromide dual fluorescent staining based imaging analysis
# MIA PaCa-2 [5] = test: Antitumor activity against human MIA PaCa-2 cells xenografted in athymic BALB/c-nu mouse assessed as fold change in benzoic acid level in tumor at 10 mg/kg/day, ip administered five times per week for 4 weeks by LC-MS analysis
# MIA PaCa-2 [6] = test: Antitumor activity against human MIA PaCa-2 cells xenografted in athymic BALB/c-nu mouse assessed as fold change in 1-aminocyclopropanecarboxylicacid level in tumor at 10 mg/kg/day, ip administered five times per week for 4 weeks by LC-MS analysis
# MIA PaCa-2 [7] = test: Antitumor activity against human MIA PaCa-2 cells xenografted in athymic BALB/c-nu mouse assessed as fold change in serine level in tumor at 10 mg/kg/day, ip administered five times per week for 4 weeks by LC-MS analysis
# MIA PaCa-2 [8] = test: Antitumor activity against human MIA PaCa-2 cells xenografted in athymic BALB/c-nu mouse assessed as tumor growth inhibition at 2 mg/kg/day, ip administered five times per week for 4 weeks relative to control; details: MIA PaCa-2, 672 h, read-out: TGI
# MIA PaCa-2 [9] = test: Antitumor activity against human MIA PaCa-2 cells xenografted in athymic BALB/c-nu mouse assessed as tumor growth inhibition at 10 mg/kg/day, ip administered five times per week for 4 weeks relative to control; details: MIA PaCa-2, 672 h, read-out: TGI
smiles,measurement,setting,value
COc1cc(O)c(C(=O)[C@@H]2CC=C(CCC=C(C)C)C[C@H]2c2ccccc2)c(O)c1,fold change (FC),MIA PaCa-2 [1],0.57
same,fold change (FC),MIA PaCa-2 [2],0.62
same,fold change (FC),MIA PaCa-2 [3],0.52
same,fold change (FC),MIA PaCa-2 [4],0.4
same,Activity,PANC-1,Active
same,fold change (FC),MIA PaCa-2 [5],0.43
same,fold change (FC),MIA PaCa-2 [6],0.61
same,fold change (FC),MIA PaCa-2 [7],0.5
same,inhibition in vivo at 2 mg/kg/day,MIA PaCa-2 [8],51%
same,inhibition in vivo at 10 mg/kg/day,MIA PaCa-2 [9],68%
